Data on 14 compounds can be found in PubChem BioAssay (NCI).

Common to all, as to assay: NCI tumour cell line growth inhibition, 48 h
In assay [1] the test system is ACHN renal.
Assay [2] deals with SW-620 colon.
The test system of assay [3] is HL-60(TB) leukemia.
The subject of assay [4] is OVCAR-5 ovarian.
For assay [5], the system named is M14 melanoma.
In assay [6] the test system is A549 NSCLC.
The test system of assay [7] is SF-268 CNS.
In assay [8] the test system is HT29 colon.
The subject of assay [9] is RPMI-8226 leukemia.
The test system of assay [10] is DU-145 prostate.

Several values for one entry are separate records, joined by “and”; a condition that tells them apart may be missing. Identical values can stand only once.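 Where inhibition never reached the appropriate level, the endpoint shown equals the highest concentration tested. Otherwise, values were interpolated linearly from a five-concentration, 48-hour dose response in 96-well plates. The concentration for 50% growth inhibition is given as GI50. TGI is the concentration that stops growth completely.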

In the case of `NS(=O)(=O)c1ccc(Nc2c3ccccc3nc3c(C(=O)N4CCN(CCO)CC4)cccc23)cc1`, the TGI in [1] is greater than 100 µM; in assay [2], greater than 100 µM; in assay [3], 65.5 µM; in [4] it was greater than 100 µM; in assay [5] it was greater than 100 µM; in assay [6], greater than 100 µM. Further, the TGI in assay [7] and in assay [8] was greater than 100 µM each time.
Take `O=[N+]([O-])c1ccc(C(Cl)C(Cl)c2ccc(C(Cl)C(Cl)c3ccc([N+](=O)[O-])cc3[N+](=O)[O-])cc2)c([N+](=O)[O-])c1` (stereo not drawn): the GI50 in assay [1] is 0.268 µM; in assay [3], 0.132 µM; in assay [5], 0.243 µM; in assay [6] it was 0.362 µM; in assay [7], 0.253 µM; in [8] it was 0.313 µM. Moreover, the TGI is 6.04 µM and 0.85 µM in assay [1]; 1.69 µM in assay [2]; 4.83 µM in [4]; 1.77 µM and 0.681 µM in assay [5]; 5.04 µM and 4.46 µM in [6]; 4.57 µM and 1.08 µM in [8]. In assay [9], this compound registered a TGI of 0.509 µM.
For the compound `CCN(CC)CC(C)C(=O)/C=C/c1ccc(C)cc1` (stereo not drawn), the TGI in assay [1] was determined as 4.36 µM; in [2], 2.96 µM; in assay [3], 14.4 µM; in assay [4] it was 28 µM; in assay [5], 4.85 µM; in assay [6] it was 13.4 µM. Moreover, the results for the TGI in [7], in [8] and in assay [9] were 4.51 µM, 3.31 µM and greater than 100 µM, respectively.
In the case of `CC(C)(C)c1cc(CCCCCCCC2(CCCCCCCc3cc(C(C)(C)C)cc(C(C)(C)C)c3)OC(COCCOCCCCCC#N)C(COCCOCCCCCC#N)O2)cc(C(C)(C)C)c1` (stereo not drawn), the TGI in [1], in assay [2], in assay [3], in [4], in [5] and in assay [6] was greater than 100 µM each time. For the same compound, the TGI in [7] and in [8] was greater than 100 µM in each case.
Turning to `Cc1ccc(S(=O)(=O)N2CCN(C=S)CC2)cc1`, the TGI in assay [1], in assay [2], in assay [3], in [4], in assay [5] and in assay [6] was greater than 100 µM throughout. In addition, the TGI in assay [7] and in [8] was greater than 100 µM in each case.
For `CC1=NN(C(=O)Nc2ccc(Cl)cc2)C(=O)C2CCC(=O)N12` (stereo not drawn), the TGI in assay [1], in assay [2], in assay [3], in assay [5], in [6] and in assay [7] was greater than 100 µM throughout. In [9], this compound showed a TGI greater than 100 µM.
Turning to `O=C(N/C(=C\c1cccc([N+](=O)[O-])c1)c1nc2ccccc2[nH]1)c1ccccc1`, the TGI in assay [1], in [2], in [4], in assay [5], in assay [6] and in [7] was greater than 100 µM throughout. For the same compound, the TGI in assay [8] and in [9] was greater than 100 µM in each case.
Consider `CC(=O)O[C@H]1CCN2C(=O)C=CC(OCc3ccccc3)C12` (stereo partly drawn), for which the TGI in assay [1], in assay [2], in assay [3], in [4], in assay [5] and in assay [6] was greater than 100 µM each time. In addition, the TGI in assay [7], in assay [8] and in assay [9] was greater than 100 µM in each case.
In the case of `CSc1nc2nn(Cc3ccccc3)cc2c(=O)[nH]1`, the TGI in assay [1], in assay [2], in assay [3], in [4], in assay [5] and in assay [6] was greater than 100 µM throughout. The TGI in [7], in assay [8] and in assay [9] was greater than 100 µM throughout.
On to `N#CCC(=O)N/N=C1/C(=O)N(c2cc(Cl)ccc2Cl)C(=O)C(=O)C1c1nc2ccccc2s1` (stereo not drawn), for which the TGI in assay [1], in assay [2], in assay [3], in assay [4], in assay [5] and in assay [6] was greater than 100 µM in each case. Besides, the TGI in assay [7], in [8] and in assay [9] was greater than 100 µM each time.
Consider `COc1cccc(/C=C/C(=O)c2sc(C(N)=S)nc2C)c1O`, for which the TGI is greater than 100 µM in [1]; 86.3 µM in assay [2]; greater than 100 µM in assay [3]; greater than 100 µM in [4]; greater than 100 µM in assay [5]; greater than 100 µM in [6]. Further, the TGI in [7] was greater than 100 µM; in assay [8], greater than 100 µM; in assay [9] it was greater than 83.3 µM.
In the case of `CCOc1cn(C2OC(CO)C(O)C2O)c(=O)[nH]c1=O` (stereo not drawn), the TGI in assay [1] is greater than 100 µM; in assay [2] it was 89.5 µM; in assay [3] it was greater than 100 µM; in assay [4], greater than 100 µM; in assay [5], greater than 100 µM; in assay [6] it was greater than 100 µM. The TGI in assay [7], in assay [8] and in assay [9] was greater than 100 µM in each case.
In the case of `COc1cc(CNCCN2C(=O)c3ccc4c5c(ccc(c35)C2=O)C(=O)N(CCNCc2cc(OC)c(OC)c(OC)c2)C4=O)cc(OC)c1OC`, the GI50 was 0.487 µM in assay [1], 0.717 µM in assay [5], 0.197 µM in [10] and 0.786 µM in assay [7]. In addition, the TGI in assay [1] came out at 1.12 µM; in assay [5] it was 1.4 µM; in assay [10], 0.743 µM; in assay [7], 2.37 µM.
For the compound `O=C(OCCCl)C1OC(n2cc(F)c(=O)[nH]c2=O)CC1O` (stereo not drawn), the TGI in assay [1], in assay [2], in [3], in assay [4], in assay [5] and in assay [6] was greater than 100 µM each time. Besides, the TGI in assay [7], in assay [8] and in assay [9] was greater than 100 µM in each case.
